Test results taken from US6620828B2, “Thiazole compounds and pharmaceutical compositions for inhibiting protein kinases and methods for their use” (Agouron Pharmaceuticals, Inc., priority 1999, dated 2003).

Legend:
Type in all cases: biochemical
CDK4/Cyclin D3 complex = molecular target: T1, CDK4/Cyclin D3 complex (Homo sapiens, UniProt P11802); experiment: CDK4/Cyclin D assay; details: Table 2; for inhibition at 100 µM: at 100 (printed 100 or 100 μM)
T1 construct: made in house; host or cells: insect cells co-infected with baculovirus vectors
T1 sequence (P11802 whole entry): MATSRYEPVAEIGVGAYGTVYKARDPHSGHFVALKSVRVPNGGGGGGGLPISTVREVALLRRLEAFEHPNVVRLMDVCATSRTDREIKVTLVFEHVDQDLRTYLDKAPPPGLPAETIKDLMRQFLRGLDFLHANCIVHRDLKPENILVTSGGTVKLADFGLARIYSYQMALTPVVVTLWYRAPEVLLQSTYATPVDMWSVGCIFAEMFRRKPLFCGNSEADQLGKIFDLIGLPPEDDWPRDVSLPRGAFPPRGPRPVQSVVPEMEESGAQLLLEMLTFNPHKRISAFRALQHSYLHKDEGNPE
T1 sequence (P30281 whole entry partner): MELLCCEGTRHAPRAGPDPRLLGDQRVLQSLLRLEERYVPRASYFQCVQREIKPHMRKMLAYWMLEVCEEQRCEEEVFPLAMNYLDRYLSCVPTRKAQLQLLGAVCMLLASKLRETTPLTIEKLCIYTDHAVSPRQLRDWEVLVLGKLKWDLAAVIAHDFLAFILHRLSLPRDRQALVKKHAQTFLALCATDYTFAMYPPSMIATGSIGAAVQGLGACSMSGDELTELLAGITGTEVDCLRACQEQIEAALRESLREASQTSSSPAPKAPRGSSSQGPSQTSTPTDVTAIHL
Method: CDK4/Cyclin D Construct for Assay: A complex of human CDK4 and cyclin D3, or a complex of cyclin DI and a fusion protein of human CDK4 and glutathione-S-transferase (GST-CDK4), was purified using traditional biochemical chromatographic techniques from insect cells that had been co-infected with the corresponding baculovirus expression vectors.
(§1) CDK2/Cyclin A and CDK4/Cyclin D Assays
(§2) Cyclin-dependent kinase activity was measured by quantifying the enzyme-catalyzed, time-dependent incorporation of radioactive phosphate from [^32P]ATP into a recombinant fragment of the retinoblastoma protein. Unless noted otherwise, assays were performed in 96-well plates in a total volume of 50 μL, in the presence of 10 mM HEPES (N-[2-hydroxyethyl]piperazine-N′-[2-ethanesulfonic acid]) (pH 7.4), 10 mM MgCl2, 25 μM adenosine triphosphate (ATP), 1 mg/mL ovalbumin, 5 μg/mL leupeptin, 1 mM dithiothreitol, 10 mM β-glycerophosphate, 0.1 mM sodium vanadate, 1 mM sodium fluoride, 2.5 mM ethylene glycol-bis(β-aminoethyl ether)-N,N,N′N′-tetraacetic acid (EGTA), 2% (v/v) dimethylsulfoxide, and 0.03-0.2 μCi [^32P]ATP. The substrate (0.3-0.5 μg) was purified recombinant retinoblastoma protein fragment (Rb) (residues 386-928 of the native retinoblastoma protein; 62.3 kDa, containing the majority of the phosphorylation sites found in the native 106-kDa protein, as well as a tag of six histidine residues for ease of purification). Reactions were initiated with CDK2 (150 nM CDK2/Cyclin A complex) or CDK4 (50 nM CDK4/Cyclin D3 complex), incubated at 30° C., and terminated after 20 minutes by the addition of ethylenediaminetetraacetic acid EDTA) to 250 mM. The phosphorylated substrate was then captured on a nitrocellulose membrane using a 96-well filtration manifold, and unincorporated radioactivity was removed by repeated washing with 0.85% phosphoric acid. Radioactivity was quantified by exposing the dried nitrocellulose membranes to a phosphorimager. Apparent Ki values were measured by assaying enzyme activity in the presence of different compound concentrations and subtracting the background radioactivity measured in the absence of enzyme. The kinetic parameters (kcat, Km for ATP) were measured for each enzyme under the usual assay conditions by determining the dependence of initial rates on ATP concentration. The data were fit to an equation for competitive inhibition using Kaleidagraph (Synergy Software), or were fit to an equation for competitive tight-binding inhibition using the software KineTic (BioKin, Ltd.). Measured Ki values for known inhibitors against CDK4 and CDK2 agreed with published IC50 values. The specific activity of CDK4 was the same whether complexed to full-length cyclin D3 or the truncated Cyclin D3 construct; both complexes also yielded very similar Ki values for selected inhibitors.

CDK2/Cyclin A complex = CDK2/Cyclin A complex (Homo sapiens, UniProt P24941); experiment: CDK2/Cyclin A assay; set-up: CDK2^c: concentration or dose not given beside the values; details: for CDK2^c: Table A combinatorial examples, footnote c not given
Excerpt: CDK2/Cyclin A Construct for Assay: CDK2 was purified using published methodology (Rosenblatt et al., J. Mol. Biol., 230, 1317-1319 (1993)) from insect cells that had been infected with a baculovirus expression vector. Cyclin A was purified from E. coli cells expressing full-length recombinant cyclin A, and a truncated cyclin A construct was generated by limited proteolysis and purified as described previously (Jeffrey et al., Nature, 376, 313-320 (Jul. 27, 1995)).
as §1, §2

FL-CHK1 = molecular target: T2, FL-CHK1 (Homo sapiens, UniProt O14757); experiment: CHK1 assay; set-up: CHK1^b: unit not given here; details: for CHK1^b: Table A combinatorial examples, footnote b not given
T2 construct: C-terminally His-tagged full-length human CHK1 (FL-CHK1); 6xHis (C); made in house; host or cells: baculovirus/insect cells
T2 sequence (O14757 1-476): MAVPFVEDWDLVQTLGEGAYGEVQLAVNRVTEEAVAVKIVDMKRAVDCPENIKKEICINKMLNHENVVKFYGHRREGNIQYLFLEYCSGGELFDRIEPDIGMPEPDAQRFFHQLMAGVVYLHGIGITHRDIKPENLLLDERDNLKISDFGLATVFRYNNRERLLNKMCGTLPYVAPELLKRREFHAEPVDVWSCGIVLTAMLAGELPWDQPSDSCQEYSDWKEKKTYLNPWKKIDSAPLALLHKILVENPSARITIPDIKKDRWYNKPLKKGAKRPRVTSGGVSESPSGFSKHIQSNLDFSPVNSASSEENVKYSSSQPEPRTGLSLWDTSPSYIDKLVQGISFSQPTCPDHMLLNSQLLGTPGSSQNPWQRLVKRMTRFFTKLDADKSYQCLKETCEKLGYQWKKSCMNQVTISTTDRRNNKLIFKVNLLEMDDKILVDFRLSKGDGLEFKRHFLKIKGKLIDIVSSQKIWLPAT
Excerpt: CHK-1 Construct for Assay: C-terminally His-tagged full-length human CHK1 (FL-CHK1) was expressed using the baculovirus/insect cell system. It contains 6 histidine residues (6×His-tag) at the C-terminus of the 476 amino acid human CHK1. The protein was purified by conventional chromatographic techniques.
The production of ADP from ATP that accompanies phosphoryl transfer to the synthetic substrate peptide Syntide-2 ([…]) was coupled to oxidation of NADH using phosphoenolpyruvate (PEP) through the actions of pyruvate kinase (PK) and lactic dehydrogenase (LDH). The oxidation of NADH was monitored by following the decrease of absorbance at 340 nm (ε340=6.22 cm^−1 mM^−1) using a HP8452 spectrophotometer. Typical reaction solutions contained: […]; 0.15 mM NADH; 28 units of LDH/ml; 16 units of PK/ml; 3 mM DTT; 0.125 mM Syntide-2; 0.15 mM ATP; 25 mM MgCl2 in 50 mM TRIS, pH 7.5; and 400 mM NaCl. Assays were initiated with 10 nM of FL-CHK1. Ki values were determined by measuring initial enzyme activity in the presence of varying concentrations of test compounds. The data were analyzed using Enzyme Kinetic and Kaleidagraph software.

[1] = molecular target: T3, phosphorylated VEGF-R2Δ50 (FLVK-P) (Homo sapiens, UniProt P35968, DEL940-989/E990V); experiment: VEGF-R2 coupled spectrophotometric (FLVK-P) assay; details: Table 3; at 1 μM
T3 construct: VEGF-R2Δ50 contains residues 806-939 and 990-1171; made in house; host or cells: baculovirus/insect cells
T3 sequence (P35968 with tags, fused parts or gaps DEL940-989/E990V limits assumed): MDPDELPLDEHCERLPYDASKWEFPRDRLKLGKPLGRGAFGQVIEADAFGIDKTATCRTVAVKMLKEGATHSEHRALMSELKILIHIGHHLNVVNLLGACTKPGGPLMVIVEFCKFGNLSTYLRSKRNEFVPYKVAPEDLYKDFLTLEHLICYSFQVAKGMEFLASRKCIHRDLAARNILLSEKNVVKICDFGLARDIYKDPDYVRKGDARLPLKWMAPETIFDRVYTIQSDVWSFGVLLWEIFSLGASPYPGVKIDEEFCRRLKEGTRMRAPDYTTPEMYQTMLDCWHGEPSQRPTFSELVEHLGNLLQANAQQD
Excerpt: VEGF-R2 Construct for Assay: This construct determines the ability of a test compound to inhibit tyrosine kinase activity. A construct (VEGF-R2Δ50) of the cytosolic domain of human vascular endothelial growth factor receptor 2 (VEGF-R2) lacking the 50 central residues of the 68 residues of the kinase insert domain was expressed in a baculovirus/insect cell system. Of the 1356 residues of full-length VEGF-R2, VEGF-R2Δ50 contains residues 806-939 and 990-1171, and also one point mutation (E990V) within the kinase insert domain relative to wild-type VEGF-R2. Autophosphorylation of the purified construct was performed by incubation of the enzyme at a concentration of 4 μM in the presence of 3 mM ATP and 40 mM MgCl2 in 100 mM Hepes, pH 7.5, containing 5% glycerol and 5 mM DTT, at 4° C. for 2 h. […] See Parast et al., Biochemistry, 37, 16788-16801 (1998).
Coupled Spectrophotometric (FLVK-P) Assay
The production of ADP from ATP that accompanies phosphoryl transfer was coupled to oxidation of NADH using phosphoenolpyruvate (PEP) and a system having pyruvate kinase (PK) and lactic dehydrogenase (LDH). The oxidation of NADH was monitored by following the decrease of absorbance at 340 nm (e340=6.22 cm^−1 mM^−1) using a Beckman DU 650 spectrophotometer. Assay conditions for phosphorylated VEGF-R2Δ50 (indicated as FLVK-P in the tables below) were the following: 1 mM PEP; 250 μM NADH; 50 units of LDH/mL; 20 units of PK/mL; 5 mM DTT; 5.1 mM poly(E4Y1); 1 mM ATP; and 25 mM MgCl2 in 200 mM Hepes, pH 7.5. Assay conditions for unphosphorylated VEGF-R2Δ50 (indicated as FLVK in the tables) were the following: 1 mM PEP; 250 μM NADH; 50 units of LDH/mL; 20 units of PK/mL; 5 mM DTT; 20 mM poly(E4Y1); 3 mM ATP; and 60 mM MgCl2 and 2 mM MnCl2 in 200 mM Hepes, pH 7.5. Assays were initiated with 5 to 40 nM of enzyme. Ki values were determined by measuring enzyme activity in the presence of varying concentrations of test compounds. The data were analyzed using Enzyme Kinetic and Kaleidagraph software.

CDK2^c (CDK2/Cyclin A complex) | CHK1^b (FL-CHK1) | SMILES | other results
– | – | Nc1nc(Nc2ccc(S(N)(=O)=O)cc2)sc1C1=NC2(O)OCCC2S1 (centres unmarked) [H(5), 4-[4′-Amino-4-hydroxy-5-(2-hydroxy-ethyl)-3′H-1′-[2,5]bithiazolyl-2′-ylamino]-benzenesulfonamide] | inhibition at 100 µM (CDK4/Cyclin D3 complex): < 0%; CDK2 % inhibition @ 100 (CDK2/Cyclin A complex; Table 2, at 100 (printed 100 or 100 μM)): 29% @
– | – | CCOC(=O)c1ccc(-c2csc(-c3sc(Nc4cc(OC)c(OC)c(OC)c4)nc3N)n2)cc1 [A(11), 4-[4′-Amino-2′-(3,4,5-trimethoxy-phenylamino)-[2,5′]bithiazolyl-4-yl]-benzoic acid ethyl ester] | inhibition at 100 µM (CDK4/Cyclin D3 complex): 33%
– | – | COc1cc(Nc2nc(N)c(C3=NC(C(C)OCc4ccccc4)CO3)s2)cc(OC)c1OC [I(4), 5-{(4R)-[(1R)-Benzyloxy-ethyl]-4,5-dihydro-oxazol-2-yl}-N^2-(3,4,5-trimethoxyl-phenyl)-thiazole-2,4-diamine] | inhibition at 100 µM (CDK4/Cyclin D3 complex): < 0%
– | – | COc1cc(Nc2nc(N)c(C3=N[C@H](Cc4ccccc4)CO3)s2)cc(OC)c1OC [I(2), R-5-(4-Benzyl-4,5-dihydro-oxazol-2-yl)-N^2-(3,4,5-trimethoxyl-phenyl)-thiazole-2,4-diamine] | inhibition at 100 µM (CDK4/Cyclin D3 complex): < 0%
– | – | COc1cc(Nc2nc(N)c(-c3cccc(Br)n3)s2)cc(OC)c1OC [G(6), 5-(6-Bromo-pyridin-2-yl)-2-N-(3,4,5-trimethoxy-phenyl)-thiazole-2,4-diamine] | Ki (CDK4/Cyclin D3 complex): 100 µM
5.4 | 32.9 | COc1cc(Nc2nc(N)c(-c3nc(-c4ccc5c(c4)OCCO5)cs3)s2)cc2c1OCCO2 | –
−7.8 | 31.9 | COc1cc(Nc2nc(N)c(-c3nc(-c4ccc5c(c4)CCC(=O)N5)cs3)s2)cc2c1OCCO2 | –
−12.1 | 32.5 | COc1cc(Nc2nc(N)c(-c3nc(-c4ccc(F)cc4F)cs3)s2)cc(OC)c1OC [drawing 382] | –
11.3 | 8.9 | CCCCCc1ccc(-c2csc(-c3sc(Nc4cc(OC)c(OC)c(OC)c4)nc3N)n2)cc1 | –
0.1 | 11.2 | COc1cc(Nc2nc(N)c(-c3nc(-c4ccc(Cl)cc4)cs3)s2)cc(OC)c1OC | –
– | – | Nc1nc(Nc2ccc(S(N)(=O)=O)cc2)sc1-c1nc(C(=O)O)cs1 [N(1)] | Ki (CDK2/Cyclin A complex; Table 3): 2.7 µM; inhibition at 1 µM [1]: 24%; inhibition at 25 µM (FL-CHK1; Table 3, at 25 μM): < 0%
−4.4 | 11.7 | COc1cc(Nc2nc(N)c(-c3nc(-c4ccc(Cl)c(C)c4)cs3)s2)cc(OC)c1OC | –
15.6 | 10.3 | COc1cc(Nc2nc(N)c(-c3nc(-c4ccc(C#N)cc4)cs3)s2)cc(OC)c1OC | –
14.3 | 31.3 | COc1cc(Nc2nc(N)c(-c3nc(-c4ccc[nH]4)cs3)s2)cc(OC)c1OC | –
35 | 48.3 | COc1cc(Nc2nc(N)c(-c3nc(-c4ccc(F)cc4)cs3)s2)cc(OC)c1OC | –
4.9 | 9.9 | COc1ccc(-c2csc(-c3sc(Nc4cc(OC)c(OC)c(OC)c4)nc3N)n2)c(OC)c1 | –
3.9 | 6.4 | COc1cc(Nc2nc(N)c(-c3nc(-c4cc(C(=O)C(Cl)(Cl)Cl)n(C)c4)cs3)s2)cc(OC)c1OC | –
13.6 | 17.9 | COc1cc(Nc2nc(N)c(-c3nc(-c4c(-c5ccccc5)noc4C)cs3)s2)cc(OC)c1OC | –
−1 | 14.1 | COc1cc(Nc2nc(N)c(-c3nc(-c4ccccc4)cs3)s2)cc(OC)c1OC [drawing 372] | –
17.5 | 0.9 | COc1cc(Nc2nc(N)c(-c3nc(-c4cc(-c5ccc(Cl)c(Cl)c5)no4)cs3)s2)cc(OC)c1OC | –
−6 | 25.4 | COc1cc(Nc2nc(N)c(-c3nc(-c4cc5cc(Cl)ccc5o4)cs3)s2)cc2c1OCCO2 | –
10.3 | 48.8 | COc1cc(Nc2nc(N)c(-c3nc(-c4c(Cl)c(Cl)nc(Cl)c4Cl)cs3)s2)cc(OC)c1OC | –
11.8 | 56 | COc1cc(OC)c(-c2csc(-c3sc(Nc4cc(OC)c(OC)c(OC)c4)nc3N)n2)c(O)c1Cl | –
−2.1 | 3.7 | COc1cc(Nc2nc(N)c(-c3nc(-c4ccc(C)cc4)cs3)s2)cc(OC)c1OC | –

SMILES | CDK2^c (CDK2/Cyclin A complex) | CHK1^b (FL-CHK1) | other results
COc1ccc(OC)c(-c2csc(-c3sc(Nc4cc(OC)c(OC)c(OC)c4)nc3N)n2)c1 | 12.2 | 6.1 | –
